Reference: PMC11876671, “Investigating blood–brain barrier penetration and neurotoxicity of natural products for central nervous system drug development” (Scientific Reports, 2025)
Structures can show the parent of a compound that is named as a salt. Where a SMILES comes first, the peptide text is derived from it. [ ]: non-standard residue; d: D form. The star is where a group is joined. X2 = CCC(C)(C)NCCN(CCNC(C)(C)/C(C)=N/O)CCN*; Tyr(3-I) = N[C@@H](Cc1ccc(O)c(I)c1)C(=O)O

Assay: in vitro
Settings: PAMPA, PAMPA-BBB Pe(10^-6 cm/sec)

Row | Structure (SMILES) | Papp [×10⁻⁶ cm/s]
1 | CO[C@H]1/C=C/O[C@@]2(C)Oc3c(C)c(O)c4c(O)c(c(/C=N/N5CCN(C)CC5)c(O)c4c3C2=O)NC(=O)/C(C)=C\C=C\[C@H](C)[C@H](O)[C@@H](C)[C@@H](O)[C@@H](C)[C@H](OC(C)=O)[C@@H]1C [Rifampicin] | 3.7
2 | Cc1cc2nc3c(=O)[nH]c(=O)nc-3n(C[C@H](O)[C@H](O)[C@H](O)CO)c2cc1C [RIBOFLAVIN] | < 1
3 | CN[C@H](CC(C)C)C(=O)N[C@H]1C(=O)N[C@@H](CC(N)=O)C(=O)N[C@H]2C(=O)N[C@H]3C(=O)N[C@H](C(=O)N[C@H](C(=O)O)c4cc(O)cc(O)c4-c4cc3ccc4O)[C@H](O)c3ccc(c(Cl)c3)Oc3cc2cc(c3O[C@@H]2O[C@H](CO)[C@@H](O)[C@H](O)[C@H]2O[C@H]2C[C@](C)(N)[C@H](O)[C@H](C)O2)Oc2ccc(cc2Cl)[C@H]1O [VANCOMYCIN HYDROCHLORIDE] | < 1
4 | CNc1ccccc1C(=O)O | 1.5
5 | COc1cc(/C=C/C(N)=O)cc(OC)c1OC [CINTRIAMIDE] | 2.3
6 | Cc1ncc(C[n+]2csc(CCO)c2C)c(N)n1 [THIAMINE MONONITRATE] | < 1
7 | CNCC(O)c1ccc(O)c(O)c1 (centres unmarked) [RACEPINEPHRINE HYDROCHLORIDE] | < 1
8 | CC(C)C/C=C(\C=O)c1ccccc1 [(Z)-5-METHYL-2-PHENYL-HEX-2-ENAL] | < 1
9 | Nc1c(O)cccc1C(=O)CC(N)C(=O)O (centres unmarked) [3-HYDROXYKYNURENINE] | < 1

Same assay, conditions: PAMPA, PAMPA-BBB Pe(10^-6 cm/sec), Table S3: compounds exhibiting low PAMPA-BBB permeability

Row | Structure (SMILES) | Papp [×10⁻⁶ cm/s]
10 | COc1cccc2c1cc([N+](=O)[O-])c1c(C(=O)O)cc3c(c12)OCO3 [ARISTOLOCHIC ACID] | < 1
11 | COc1ccc2cc1Oc1ccc(cc1)C[C@H]1c3cc(c(OC)cc3CCN1C)Oc1c(OC)c(OC)c(OC)c3c1[C@H](C2)N(C)CC3 [HERNANDEZINE] | 9.7
12 | C[C@H]1O[C@@H](Oc2c(-c3ccc(O)c(O)c3)oc3cc(O)cc(O)c3c2=O)[C@H](O)[C@H](O)[C@H]1O [QUERCITROSIDE] | < 1
13 | O=C(CCc1ccc(O)cc1)c1c(O)cc(O)cc1O[C@@H]1O[C@H](CO)[C@@H](O)[C@H](O)[C@H]1O [PHLORIDZIN] | 1.4
14 | CO[C@@H]1[C@H](O)C[C@@H](O[C@@H]2C[C@H](Oc3cc4cc5c(c(O)c4c(O)c3C)C(=O)[C@@H](O[C@H]3C[C@@H](O[C@H]4C[C@@H](O[C@H]6C[C@](C)(O)[C@@H](OC(C)=O)[C@H](C)O6)[C@H](O)[C@@H](C)O4)[C@H](O)[C@@H](C)O3)[C@H]([C@H](OC)C(=O)[C@@H](O)[C@@H](C)O)C5)O[C@H](C)[C@@H]2OC(C)=O)O[C@@H]1C [CHROMOMYCIN A3] | < 1
15 | O=c1c(O)c(-c2cc(O)c(O)c(O)c2)oc2cc(O)cc(O)c12 [MYRICETIN] | < 1
16 | O[C@@H]1[C@@H](O)[C@H](OC/C=C/c2ccccc2)O[C@H](CO[C@@H]2OC[C@H](O)[C@H](O)[C@H]2O)[C@H]1O [ROSAVIN] | < 1
17 | OC[C@H]1O[C@@H](OC[C@H]2O[C@@H](OC/C=C/c3ccccc3)[C@H](O)[C@@H](O)[C@@H]2O)[C@@H](O)[C@@H]1O [ROSARIN] | < 1
18 | O=c1c(O)c(-c2ccc(O[C@@H]3O[C@H](CO)[C@@H](O)[C@H](O)[C@H]3O)c(O)c2)oc2cc(O)cc(O)c12 [SPIRAEOSIDE] | < 1
19 | COC1=C[C@@H]2C3=C([C@@H]2C1=O)[C@@H](NC(C)=O)CCc1cc(OC)c(OC)c(OC)c13 [β-Lumicolchicine] | 3.6
20 | CNc1ncnc2c1ncn2C1OC(CO)C(O)C1O (centres unmarked) [N-METHYLADENOSINE] | < 1
21 | C[C@@H]1C/C=C/C=C/C=C/C=C/[C@H](O[C@@H]2O[C@H](C)[C@@H](O)[C@H](N)[C@@H]2O)C[C@@H]2O[C@](O)(C[C@@H](O)C[C@H]3O[C@@H]3/C=C/C(=O)O1)C[C@H](O)[C@H]2C(=O)O [NATAMYCIN] | 5.7
22 | CC(C)=CCNc1ncnc2c1ncn2[C@@H]1O[C@H](CO)[C@@H](O)[C@H]1O [RIBOPRINE] | < 1
23 | COc1cc2c(c(OC)c1OC)-c1ccc(OC)c(=O)cc1[C@@H](NC=O)CC2 [N-FORMYL-N-DEACETYLCOLCHICINE] | 6.6
24 | COc1cc2c(c(OC)c1OC)-c1ccc(O)c(=O)cc1[C@@H](N)CC2 [N-DEACETYLCOLCHICEINE] | 8.2
25 | C/C=C1\[C@H]2C=C(C)C[C@]1(N)c1ccc(=O)[nH]c1C2 [HUPERZINE A] | 8.1
26 | C=C(NC(=O)C(=C)NC(=O)c1csc(C2=N[C@@H]3c4csc(n4)[C@H]4NC(=O)c5csc(n5)[C@H]([C@](C)(O)[C@@H](C)O)NC(=O)[C@H]5CSC(=N5)/C(=C/C)NC(=O)[C@H]([C@@H](C)O)NC(=O)c5csc(n5)[C@]3(CC2)NC(=O)[C@H](C)NC(=O)C(=C)NC(=O)[C@H](C)NC(=O)[C@H]([C@@H](C)CC)N[C@@H]2C=Cc3c([C@H](C)O)cc(nc3[C@H]2O)C(=O)O[C@@H]4C)n1)C(N)=O [THIOSTREPTON] | < 1
27 | Oc1cc(O)c2cc(O)c(-c3cc(O)c(O)c(O)c3)[o+]c2c1 [D[…]] | 4.7
28 | COc1cc(C)c2c(c1C=O)Oc1c(c(C)c(O)c3c1C(O)OC3=O)OC2=O (centres unmarked) [STICTIC ACID] | < 1
29 | O=c1ccc2ccc(O[C@@H]3O[C@H](CO)[C@@H](O)[C@H](O)[C@H]3O)c(O)c2o1 [DAPHNIN] | < 1

Row | Structure (SMILES) | Papp [×10⁻⁶ cm/s]
30 | Nc1ncnc2c1ncn2[C@@H]1O[C@H](CO)[C@@H](O)[C@H]1O [ADENOSINE] | < 1
31 | COC(=O)/C=C/C(C)=C/C=C/C(C)=C/C=C/C=C(C)/C=C/C=C(C)/C=C/C(=O)O [ISOBIXIN] | 4.2
32 | CC(=O)NCCc1c[nH]c2ccc(O)cc12 [NORMELATONIN] | < 1
33 | CNc1ccc(C(=O)CC(O)CCC(C)C2OC(=O)CC(O)CC(=O)CC(O)CC(O)CC(O)CC(O)CC3(O)CC(O)C(C(=O)OC)C(CC(O[C@@H]4O[C@H](C)[C@@H](O)[C@H](N)[C@@H]4O)/C=C/C=C/C=C/C=C/C=C/C=C/C=C/C2C)O3)cc1 (some centres unmarked) [M[…]] | < 1
34 | N[C@@H](Cn1ccc(=O)[nH]c1=O)C(=O)O [WILLARDIINE] | < 1
35 | O=C(O)c1cc(O)c(O)c(O)c1 [GALLIC ACID] | < 1
36 | CC(C)C1=CC2=CC[C@@H]3[C@](C)(CCC[C@@]3(C)C(=O)O)[C@H]2CC1 [SODIUM ABIETATE] | < 1
37 | O=C(O)/C=C/C=C/c1ccc2c(c1)OCO2 [PIPERIC ACID] | < 1
38 | C[C@]12CC[C@@H]3c4ccc(O)cc4CC[C@H]3[C@@H]1C[C@@H](O)[C@@H]2O [ESTRIOL] | < 1
39 | Cc1cc(O)c(C=O)c2c1C(=O)Oc1c(COC(=O)/C=C/C(=O)O)c(O)c(C(=O)O)c(C)c1O2 [FUMARPRO[…]] | < 1
40 | CC(=O)O[C@H]1C(=O)[C@@]2(C)[C@H]([C@H](OC(=O)c3ccccc3)[C@]3(O)C[C@H](O)C(C)=C1C3(C)C)[C@]1(OC(C)=O)CO[C@@H]1C[C@@H]2O [BACCATIN III] | < 1
41 | Nc1ncn([C@@H]2O[C@H](CO)[C@@H](O)[C@H]2O)c(=O)n1 [AZACITIDINE] | < 1
42 | O=C(/C=C/c1ccc(O)c(O)c1)O[C@H](Cc1ccc(O)c(O)c1)C(=O)O [ROSMARINIC ACID] | 3.4
43 | CNCC(O)c1ccc(O)c(OC)c1 (centres unmarked) [METANEPHRINE HYDROCHLORIDE] | < 1
44 | CC(=O)Nc1ccccc1O [O-ACETAMIDOPHENOL] | < 1
45 | CC1=C(/C=C/C(C)=C/C=C/C(C)=C/C=C/C=C(C)/C=C/C=C(C)/C=C/C2=C(C)CCCC2(C)C)C(C)(C)CCC1 [BETA CAROTENE] | 9.2
46 | O=c1cc(O)cc(/C=C/c2ccc(O)c(O)c2)o1 [HISPIDIN] | < 1
47 | Cc1coc2c1C(=O)C(=O)c1c-2ccc2c(C)cccc12 [TANSHINONE I] | 6.8
48 | CCCCCCCCCCCCCCCCCCCC(=O)O [[…]] | < 1

Same assay, conditions: PAMPA, PAMPA-BBB Pe, Table S2: compounds exhibiting moderate to high PAMPA-BBB permeability

Row | Structure (SMILES) | Papp [×10⁻⁶ cm/s]
49 | COc1ccc2c(c1O)-c1c(OC)c(OC)cc3c1[C@H](C2)N(C)CC3 [ISOCORYDINE] | 74
50 | CCN1C[C@@]2(COC)CCC(OC)[C@@]34[C@@H]1C([C@H](OC)[C@H]23)[C@@]1(OC(C)=O)C[C@H](OC)[C@@]2(O)C[C@H]4C1[C@H]2OC(=O)c1ccc(OC)cc1 (some centres unmarked) [BULLE[…]] | 17
51 | CCC(C)(C)NCCN(CCNC(=O)CNC(=O)[C@H](CCCCN)NC(=O)[C@H](CC(C)C)NC(=O)[C@H](CC(C)C)NC(=O)[C@@H](NC(=O)[C@H](Cc1ccc(O)c(I)c1)NC(=O)[C@@H]1CCCN1C(=O)[C@H](CO)NC(=O)[C@@H](NC(=O)[C@H](CCC(N)=O)NC(=O)[C@H](CCC(=O)O)NC(=O)[C@H](CCC(N)=O)NC(=O)[C@H](CC(N)=O)NC(C)=O)C(C)C)[C@@H](C)O)CCNC(C)(C)/C(C)=N/O (Ac-NQEQVSP[Tyr(3-I)]TLLKG-X2) | 155
52 | CCOC(=O)c1c(C)cc(O)cc1O [ETHYL ORSELLINATE] | 137
53 | CC[C@H]1CN2CC[C@H]1C[C@@H]2[C@@H](O)c1ccnc2ccc(OC)cc12 [HYDROQUINIDINE HYDROCHLORIDE] | 37
54 | CC(=O)OCC=Cc1ccccc1 [CINNAMYL ACETATE] | 88
55 | COc1ccc(C(=O)O[C@H]2CC[C@@]3(C)[C@@H]4CC[C@H]5[C@]6(O)C[C@H](O)[C@@]7(O)[C@@H](CN8C[C@@H](C)CC[C@H]8[C@@]7(C)O)[C@]6(O)C[C@@]53O[C@]24O)cc1OC [VERATRIDINE] | 17
56 | COc1ccccc1/C=C/C=O [2'-METHOXYCINNAMALDEHYDE] | 122
57 | CC1=CC(=O)C2=C(C)CC[C@@H]3[C@H](OC(=O)[C@H]3C)[C@@H]12 [LEUKOMISIN] | 57
58 | COc1cc(C2c3cc4c(c(O)c3CC3COC(=O)C32)OCO4)cc(OC)c1O (stereo not drawn) [.ALPHA.-PELTATIN A] | 14
59 | CC1=C(O)C(=O)CO1 [NORFURONOL] | 47
60 | Cn1cnc2c(NCc3ccccc3)nc(NCCO)nc21 [OLOMOUCINE] | 10
61 | O=c1c(O)c(-c2ccccc2)oc2ccccc12 [FLAVONOL] | 181
62 | O=Cc1ccco1 [FURFURAL] | 46
63 | O=[N+]([O-])c1c(Cl)cccc1-c1c[nH]cc1Cl [PYRROLNITRIN] | 159
64 | COc1ccc(-c2oc3cc(OC)c(OC)c(OC)c3c(=O)c2OC)cc1OC | 120
65 | O=C(/C=C/c1ccccc1)OCc1ccccc1 [BENZYL CINNAMATE] | > 424
66 | CC(C)c1cccc(O)c1 [M-ISOPROPYLPHENOL] | 149
67 | COc1ccc(-c2coc3cc(O)ccc3c2=O)cc1 [FORMONONETIN] | 97
68 | CC1(C)C2=CCCC(C)(C)[C@]23CC[C@H]1C3 [ISOLONGIFOLENE] | 87
